By IC50 is commonly meant the point on the concentration scale where inhibition reaches its midpoint.

These results are taken from patent US7132504B2, “Hepatitis C virus inhibitors” (Bristol-Myers Squibb Company, priority 2003, dated 2006).

The target in assay [1] is T1, HCV NS3/4A protease complex (UniProt P27958, C1454S/C1711G, species not given).
T1 construct: fused on or other part: Three-lysine solubilising tail at the C-terminus of NS4A
The assay can be described thus: Recombinant HCV NS3/4A protease complex FRET peptide assay (strain not stated). Conditions: NS3/4A protease enzyme assay, read-out: Activity Range IC50. Type of assay: biochemical. The text has this:
(§1) The purpose of this in vitro assay was to measure the inhibition of HCV NS3 protease complexes, derived from the BMS strain, H77 strain or J416S strain, as described below, by compounds of the present invention. This assay provides an indication of how effective compounds of the present invention would be in inhibiting HCV proteolytic activity.
Serum from an HCV-infected patient was obtained from Dr. T. Wright, San Francisco Hospital. An engineered full-length cDNA (compliment deoxyribonucleic acid) template of the HCV genome (BMS strain) was constructed from DNA fragments obtained by reverse transcription-PCR (RT-PCR) of serum RNA (ribonucleic acid) and using primers selected on the basis of homology between other genotype 1a strains. From the determination of the entire genome sequence, a genotype 1a was assigned to the HCV isolate according to the classification of Simmonds et al. (See P Simmonds, K A Rose, S Graham, S W Chan, F McOmish, B C Dow, E A Follett, P L Yap and H Marsden, J. Clin. Microbiol., 31(6), 1493–1503 (1993)). […] The infectious clones, H77 (1a genotype) and J4L6S (1b genotype) were obtained from R. Purcell (NIH) and the sequences are published in Genbank (AAB67036, see Yanagi, M., Purcell, R. H., Emerson, S. U. and Bukh, J. Proc. Natl. Acad. Sci. U.S.A. 94(16), 8738–8743 (1997); AF054247, see Yanagi, M., St Claire, M., Shapiro, M., Emerson, S. U., Purcell, R. H. and Bukh, J, Virology 244 (1), 161–172. (1998)).
The H77 and J4L6S strains were used for production of recombinant NS3/4A protease complexes. DNA encoding the recombinant HCV NS3/4A protease complex (amino acids 1027 to 1711) for these strains were manipulated as described by P. Gallinari et al. (see Gallinari P, Paolini C, Brennan D, Nardi C, Steinkuhler C, De Francesco R. Biochemistry. 38(17):5620–32, (1999)). Briefly, a three-lysine solubilizing tail was added at the 3′-end of the NS4A coding region. The cysteine in the P1 position of the NS4A–NS4B cleavage site (amino acid 1711) was changed to a glycine to avoid the proteolytic cleavage of the lysine tag. Furthermore, a cysteine to serine mutation was introduced by PCR at amino acid position 1454 to prevent the autolytic cleavage in the NS3 helicase domain. The variant DNA fragment was cloned in the pET21b bacterial expression vector (Novagen) and the NS3/4A complex was expressed in Escherichia. coli strain BL21 (DE3) (Invitrogen) following the protocol described by P. Gallinari et al. (see Gallinari P, Brennan D, Nardi C, Brunetti M, Tomei L, Steinkuhler C, De Francesco R., J Virol. 72(8):6758–69 (1998)) with modifications. Briefly, the NS3/4A protease complex expression was induced with 0.5 millimolar (mM) Isopropyl β-D-1-thiogalactopyranoside (IPTG) for 22 hours (h) at 20° C. A typical fermentation (1 Liter (L)) yielded approximately 10 grams (g) of wet cell paste. The cells were resuspended in lysis buffer (10 mL/g) consisting of 25 mM N-(2-Hydroxyethyl)Piperazine-N′-(2-Ethane Sulfonic acid) (HEPES), pH 7.5, 20% glycerol, 500 mM Sodium Chloride (NaCl), 0.5% Triton X-100, 1 microgram/milliliter (“μg/mL”) lysozyme, 5 mM Magnesium Chloride (MgCl2), 1 μg/ml Dnasel, 5 mM β-Mercaptoethanol (βME), Protease inhibitor—Ethylenediamine Tetraacetic acid (EDTA) free (Roche), homogenized and incubated for 20 minutes (min) at 4° C. The homogenate was sonicated and clarified by ultra-centrifugation at 235000 g for 1 h at 4° C. Imidazole was added to the supernatant to a final concentration of 15 mM and the pH adjusted to 8.0. The crude protein extract was loaded on a Nickel—Nitrilotriacetic acid (Ni-NTA) column pre-equilibrated with buffer B (25 mM HEPES, pH 8.0, 20% glycerol, 500 mM NaCl, 0.5% Triton X-100, 15 mM imidazole, 5 mM βME). The sample was loaded at a flow rate of 1 mL/min. The column was washed with 15 column volumes of buffer C (same as buffer B except with 0.2% Triton X-100). The protein was eluted with 5 column volumes of buffer D (same as buffer C except with 200 mM Imidazole). […]

The target of assay [2] is T2, NS3/4A protease complex, J4L6S strain (Hepatitis C virus genotype 1b, UniProt O92972, C1454S/C1711G).
T2 construct: DNA encoding the recombinant HCV NS3/4A protease complex (amino acids 1027 to 1711) for these strains; inferred from pET21b vector and Ni-NTA purification; made in house; host or cells: Escherichia coli BL21 (DE3), pET21b
T2 sequence (O92972 1027-1711 C1454S/C1711G, one chain of several): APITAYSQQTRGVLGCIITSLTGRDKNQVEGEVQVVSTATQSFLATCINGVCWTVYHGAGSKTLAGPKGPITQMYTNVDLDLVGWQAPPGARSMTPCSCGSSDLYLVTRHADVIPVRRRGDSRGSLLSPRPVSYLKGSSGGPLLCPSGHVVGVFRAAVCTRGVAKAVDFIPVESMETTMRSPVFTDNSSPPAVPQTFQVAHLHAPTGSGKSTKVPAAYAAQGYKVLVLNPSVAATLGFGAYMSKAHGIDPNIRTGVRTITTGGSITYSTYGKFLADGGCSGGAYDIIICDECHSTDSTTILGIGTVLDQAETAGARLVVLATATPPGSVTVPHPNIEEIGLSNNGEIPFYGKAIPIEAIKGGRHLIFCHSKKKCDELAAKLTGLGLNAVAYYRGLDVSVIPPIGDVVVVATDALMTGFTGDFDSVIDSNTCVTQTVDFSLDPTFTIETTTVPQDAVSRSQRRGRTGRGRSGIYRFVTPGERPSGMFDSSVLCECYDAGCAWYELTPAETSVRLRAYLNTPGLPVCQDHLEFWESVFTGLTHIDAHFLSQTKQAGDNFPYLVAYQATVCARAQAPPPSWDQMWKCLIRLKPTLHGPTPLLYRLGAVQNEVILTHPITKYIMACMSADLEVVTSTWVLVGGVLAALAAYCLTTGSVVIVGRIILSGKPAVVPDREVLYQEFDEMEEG
Briefly: Recombinant HCV NS3/4A protease complex FRET peptide assay, J4L6S strain. Type of assay: biochemical, HCV genotype 1b (J4L6S).
Text: as §1
Serum from an HCV-infected patient was obtained from Dr. T. Wright, San Francisco Hospital. An engineered full-length cDNA (compliment deoxyribonucleic acid) template of the HCV genome (BMS strain) was constructed from DNA fragments obtained by reverse transcription-PCR (RT-PCR) of serum RNA (ribonucleic acid) and using primers selected on the basis of homology between other genotype 1a strains. From the determination of the entire genome sequence, a genotype 1a was assigned to the HCV isolate according to the classification of Simmonds et al. (See P Simmonds, K A Rose, S Graham, S W Chan, F McOmish, B C Dow, E A Follett, P L Yap and H Marsden, J. Clin. Microbiol., 31(6), 1493–1503 (1993)). […]

Turning to `C=CC1C[C@]1(NC(=O)[C@@H]1C[C@@H](Oc2cc(-c3ccccc3)nc3cc(OC)ccc23)CN1C(=O)[C@@H](NC(=O)OC)C(C)(C)C)C(=O)NS(=O)(=O)N(C)Cc1ccccc1` (some centres unmarked) [Compound 9], the IC50 in assay [1] is under 150 nM; in assay [2], 41 nM.
